| SMILES | melting point |
| --- | --- |
| Fc1ccc(-c2nnc(Cl)c3ccccc23)cc1 | 186 to 188 °C |
| CC(=O)c1c[nH]cc1-c1ccccc1 | 156 to 158 °C |
| O=C1CCCc2nc(-c3ccc(F)cc3)sc21 | 142 to 144 °C |
| COc1ccc2nc(O)c(C(=O)O)cc2c1 | 309 to 311 °C |
| Cc1ccc(S(=O)(=O)Cl)cc1C | 36 to 38 °C |
| Cc1ccccc1-n1c(S)nnc1-c1ccncc1 | 280 to 282 °C |
| COc1nc(C(=O)O)cc2ccccc12 | 184 to 186 °C |
| O=c1[nH]c(-c2ccc(Cl)s2)nc2c1CCC2 | 276 to 278 °C |
| COCC(=O)c1ccc(F)c(F)c1 | 39 to 41 °C |
| NNC(=O)C(=O)NCc1ccc(Cl)cc1 | 191 to 193 °C |
| C#CCSc1cccc(C(=O)O)c1 | 121 to 123 °C |
| CC(=O)c1c(Cl)nc2sccn12 | 159 to 161 °C |
| O=C(O)c1oc2ccccc2c1CSc1ccc(Cl)cc1 | 158 to 160 °C |
| CCN(CC)c1ccc(C=C[N+](=O)[O-])cc1 | 98 to 100 °C |
| CC(=O)N1CCN(c2cc(C#N)ccn2)CC1 | 107 to 109 °C |
| Cc1nccc(N)c1Cl | 110 to 112 °C |
| COc1cc(C=O)ccc1OCC(=O)N1CCOCC1 | 98 to 100 °C |
| Cc1ccc(-c2nc3c(s2)C(=O)CCC3)cc1 | 128 to 130 °C |
| Cc1cc(C(=O)O)c(C)n1-c1ccc(C#N)cc1 | 249 to 251 °C |
| O=[N+]([O-])c1ccc(Br)cc1F | 86 to 88 °C |
| O=C(O)C1CCCCN1S(=O)(=O)c1ccc([N+](=O)[O-])cc1 (stereo not given) | 161 to 163 °C |
| O=C(O)C(c1ccccc1)N1C(=O)CCC1=O (stereo not given) | 194 to 196 °C |
| NS(=O)(=O)c1ccc(Br)cn1 | 170 to 172 °C |
| O=C(O)/C=C/c1ccc(-n2ccnc2)cc1 | 300 to 302 °C |

| SMILES | melting point |
| --- | --- |
| Cc1nn(CC(C)C)c(Cl)c1C(=O)O | 128 to 130 °C |
| CC(C)(C)OC(=O)N1CCC(NC(N)=O)CC1 | 217 to 219 °C |
| Nc1nc2c(s1)CN(Cc1ccccc1)CC2 | 95 to 98 °C |
| Cc1cc(C(=O)O)c(N)c([N+](=O)[O-])c1 | 249 to 251 °C |
| O=C(O)C=Cc1cn(-c2ccccc2)nc1-c1ccccc1 | 207 to 209 °C |
| O=Cc1cccc(NC(=O)c2ccc(Cl)cc2)c1 | 129 to 131 °C |
| Fc1ccc2c(C3CCNCC3)c[nH]c2c1 | 225 to 227 °C |
| C=CC(=O)NC(N)=O | 169 to 171 °C |
| CNc1ccc(Br)cc1[N+](=O)[O-] | 101 to 103 °C |
| CCOC(=O)/C(C#N)=C/Nc1ccc(Br)cc1 | 149 to 151 °C |
| CCC(=O)Nc1ccc(O)cc1 | 169 to 171 °C |
| Cc1nn(C)c(C(F)(F)F)c1C(=O)O | 213 to 215 °C |
| CC(=O)Nc1ccc(C)c(N)c1 | 134 to 136 °C |
| CS(=O)(=O)Nc1cccc(CC(=O)O)c1 | 156 to 158 °C |
| O=C1NC(=O)C(F)(F)c2ccccc21 | 109 to 111 °C |
| CN(C)S(=O)(=O)c1ccc(Cl)c(C(=O)O)c1 | 181 to 183 °C |
| O=C(O)CNc1ncnc2ccccc12 | 219 to 221 °C |
| O=C(O)CCOc1cccc(Br)c1 | 60 to 69 °C |
| CC1Oc2ccc(N)cc2NC1=O (stereo not given) | 198 to 200 °C |
| CC(C)(C(=O)O)C(O)c1cccc(OCc2ccccc2)c1 (stereo not given) | 125 to 127 °C |
| COc1ccc(CCNC(N)=S)cc1 | 166 to 168 °C |
| OC1CNCC1N1CCCC1 (stereo not given) | 82 to 84 °C |
| N#Cc1cc([N+](=O)[O-])ccc1N1CCC(C(=O)O)CC1 | 161 to 163 °C |
| NC(=S)Nc1cc(F)cc(F)c1 | 149 to 151 °C |

| SMILES | melting point |
| --- | --- |
| Cc1cc(C(=O)O)c(C)n1-c1cccc(Cl)c1 | 160 to 162 °C |
| CSc1nc(Cl)cc(NN)n1 | 154 to 156 °C |
| NCC1(C(N)=O)CCCC1 | 61 to 63 °C |
| Cc1ccnc(NC2CCCCC2)c1 | 75 to 77 °C |
| Cc1cc(C)nc(-n2cc(C(=O)O)c(C(C)C)n2)n1 | 171 to 173 °C |
| CCN(CC)C(=O)c1sc2nc(CCl)[nH]c(=O)c2c1C | 174 to 176 °C |
| O=S(=O)(Cl)c1c(Cl)ccnc1Cl | 79 to 81 °C |
| COc1ccc2oc(C(C)=O)c(C)c2c1 | 96 to 98 °C |
| O=C(CCCl)N(c1ccccc1)C1C=CS(=O)(=O)C1 (stereo not given) | 122 to 124 °C |
| O=C(O)C1(c2ccc(Br)cc2)CCCC1 | 176 to 178 °C |
| COc1ccc(N)cc1OCc1ccncc1 | 116 to 118 °C |
| CC(C)(C)OC(=O)N1CCC(OC(=O)c2ccccc2N)CC1 | 120 to 122 °C |
| CC(C)(C)OC(=O)N1CC(O)(c2ccc(F)c(F)c2)C1 | 69 to 71 °C |
| CCOC(C)c1nc(C)c(C(=O)O)s1 (stereo not given) | 112 to 114 °C |
| Nc1nc(-c2ccc(Oc3ccccc3)cc2)cs1 | 195 to 197 °C |
| Cc1cc(Br)cc(C)c1NC(=O)CCCCl | 139 to 141 °C |
| O=C(O)c1csc(C(=O)CCl)c1 | 147 to 149 °C |
| FC(F)(F)c1nc(Cl)c2cc(Br)ccc2n1 | 101 to 103 °C |
| N#Cc1c(N)sc2c1-c1ccccc1CC2 | 166 to 168 °C |
| NC(=O)c1ccsc1NC(=O)CCl | 148 to 150 °C |
| CCOC(=O)c1sc2nc(CN3CCOCC3)nc(Cl)c2c1C | 110 to 112 °C |
| O=C(O)c1cccc(C(F)(F)C(F)(F)F)c1 | 94 to 96 °C |
